Measurements from patent publication EP0943615A1, “1,4-DIHYDROPYRIDINE DERIVATIVES” (Nikken Chemicals Company, Limited, priority 1996, dated 1998).

system: VJ-300 cells; experiment: In vitro test of action suppressing proliferation of cancer cells, combined administration of doxorubicin (colony formation), resistant cells; type: cell-based, Human; details: ADM alone or ADM + test compound 1 µg/ml, LD50 of ADM relative to ADM alone in KB cells = 1, 7 days incubation, colony count
Description: Human rhinopharynx cancer derived KB cells (i.e., sensitive cells) and their multi-drug resistant clone VJ-300 cells (i.e., resistant cells) were used as the test cells. As the incubation solutions, use was made of 10% fetal calf serum (Flow Laboratories) and Eagle MEM medium (Nissui Seiyaku) containing 0.292 mg/ml of L-glutamine (Flow Laboratories). The tests of the action for overcoming resistance to anti-cancer drugs or action for increasing the effect of the anti-cancer drug with the combined administration of the anti-cancer drug doxorubicin (i.e., adriamycin, ADM) and the test compound were performed as follows:
The test cells were suspended in incubation solutions and adjusted to a cell density of about 200 cells/ml. The cell suspensions were injected in 2 ml amounts into petri dishes and were incubated in a CO2 gas incubator (5% CO2, 95% air) at 37°C for 24 hours. Then, 5 µl of a predetermined concentration of the aqueous ADM solution and a predetermined concentration of a DMSO solution of the test compound were added, then the incubation was continued for a further 7 days. After the end of the incubation, the result was immobilized with methanol, Giemsa stained and measured for the number of colonies per dish. The results were used to prepare a volume-reaction curve. […] The results are shown in Table 8 to Table 10 using the concentration of LD50 of ADM in the ADM alone group by KB cells as the resistance degree 1 and calculating the resistances of the following LD50 concentrations as relative ratios. […]

Structure (SMILES)	Degree of resistance for ADM VJ-300
CCOC(=O)C1=C(c2cccc(-n3ccnc3)c2)NC(C)=C(C(=O)OC/C=C/c2cccnc2)C1/C=C/c1ccccc1 (stereo not drawn) [Compound 36, 2-[3-(1-imidazolyl)phenyl]-6-methyl-4-[(E)-2-phenylethenyl]-1,4-dihydropyridin-3,5-dicarboxylate 3-ethylester, 5-[(E)-3-(3-pyridyl)-2-propenyl]ester]	1.0
CCOC(=O)C1=C(c2ccc(-n3ccc4ccccc43)cc2)NC(C)=C(C(=O)OC/C=C/c2cccnc2)C1/C=C/c1ccccc1 (stereo not drawn) [Compound 35, 2-[4-(1-indolyl)phenyl]-6-methyl-4-[(E)-2-phenylethenyl]-1,4-dihydropyridin-3,5-dicarboxylate 3-ethylester, 5-[(E)-3-(3-pyridyl)-2-propenyl]ester]	3.0
CCCCCC1C(C(=O)OCCCCCc2cccnc2)=C(C)NC(c2ccc(-n3c(C)nc4cnccc43)cc2)=C1C(=O)OCC (stereo not drawn) [Compound 17, 6-methyl-2-[4-(2-methylimidazo[4,5-c]pyridin-1-yl)phenyl]-4-pentyl-1,4-dihydropyridin-3,5-dicarboxylate 3-ethylester, 5-[5-(3-pyridyl)pentyl]ester]	1.6
CCOC(=O)C1=C(c2ccc(-n3c(C)nc4cnccc43)cc2)NC(C)=C(C(=O)OCCCc2cccnc2)C1C1CCCCC1 (stereo not drawn) [Compound 9, 4-cyclohexyl-6-methyl-2-[4-(2-methylimidazo[4,5-c]pyridin-1-yl)phenyl]-1,4-dihydropyridin-3,5-dicarboxylate 3-ethylester, 5-[3-(3-pyridyl)propyl]ester]	2.9
CCOC(=O)C1=C(c2ccc(-n3c(C)nc4cnccc43)cc2)NC(C)=C(C(=O)OCCCC(=O)c2cccnc2)C1/C=C/c1ccccc1 (stereo not drawn) [Compound 47, 6-methyl-2-[4-(2-methylimidazo[4,5-c]pyridin-1-yl)phenyl]-4-[(E)-2-phenylethenyl]-1,4-dihydropyridin-3,5-dicarboxylate 3-ethylester, 5-(3-nicotinoylpropyl)ester]	1.2
CCOC(=O)C1=C(c2ccc(-n3c(C)nc4ncccc43)cc2)NC(C)=C(C(=O)OC/C=C/c2cccnc2)C1/C=C/c1ccccc1Cl (stereo not drawn) [Compound 22, 4-[(E)-2-(2-chlorophenyl]ethenyl]-6-methyl-2-[4-(2-methylimidazo[4,5-b]pyridin-1-yl)phenyl]-1,4-dihydropyridin-3,5-dicarboxylate 3-ethylester, 5-[(E)-3-(3-pyridyl)-2-propenyl]ester]	1.7
CCOC(=O)C1=C(c2ccc(-n3c(C)nc4cnccc43)cc2)NC(C)=C(C(=O)OCCCc2cccnc2)C1CC(C)C (stereo not drawn) [Compound 10, 6-methyl-2-[4-(2-methylimidazo[4,5-c]pyridin-1-yl)phenyl]-4-(2-methylpropyl)-1,4-dihdropyridin-3,5-dicarboxylate 3-ethylester, 5-[3-(3-pyridyl)propyl]ester]	1.4
CCOC(=O)C1=C(c2ccc(-n3c(C)nc4cnccc43)cc2)NC(C)=C(C(=O)OCCCc2cccnc2)C1C=C(C)C (stereo not drawn) [Compound 11, 6-methyl-2-[4-(2-methylimidazo[4,5-c]pyridin-1-yl)phenyl]-4-(2-methyl-1-propenyl)-1,4-dihydropyridin-3,5-dicarboxylate 3-ethylester, 5-[3-(3-pyridyl)propyl]ester]	3.2
CCCCCC1C(C(=O)OC/C=C(/c2cccnc2)c2cccs2)=C(C)NC(c2ccc(-n3c(C)nc4cnccc43)cc2)=C1C(=O)OCC (stereo not drawn) [Compound 19, 6-methyl-2-[4-(2-methylimidazo[4,5-c]pyridin-1-yl)phenyl]-4-pentyl-1,4-dihydropyridin-3,5-dicarboxylate 3-ethylester, 5-[(Z)-3-(3-pyridyl)-3-(2-thienyl)-2-propenyl]ester]	1.2
CCOC(=O)C1=C(c2ccc(-n3c(C)nc4cnccc43)cc2)NC(C)=C(C(=O)OCCCc2cccnc2)C1CCc1ccccc1 (stereo not drawn) [Compound 13, 6-methyl-2-[4-(2-methylimidazo[4,5-c]pyridin-1-yl)phenyl]-4-(2-phenylethyl)-1,4-dihydropyridin-3,5-dicarboxylate 3-ethylester, 5-[3-(3-pyridyl)propyl]ester]	2.6
COC(=O)C1=C(c2ccc(-n3c(C)nc4cnccc43)cc2)NC(C)=C(C(=O)OC/C=C/c2cccnc2)C1/C=C/c1ccsc1 (stereo not drawn) [Compound 41]	7.8
CCOC(=O)C1=C(c2ccc(-n3c(C)nc4cnccc43)cc2)NC(C)=C(C(=O)OC/C=C/c2cccnc2)C1C=C1CCCCC1 (stereo not drawn) [Compound 29, 4-cyclohexylidenemethyl-6-methyl-2-[4-(2-methylimidazo[4,5-c]pyridin-1-yl)phenyl]-1,4-dihydropyridin-3,5-dicarboxylate 3-ethylester, 5-[(E)-3-(3-pyridyl)-2-propenyl]ester]	1.2
CCCCCC1C(C(=O)OC/C=C/c2cccnc2)=C(C)NC(c2cccc(-n3ccnc3)c2)=C1C(=O)OCC (stereo not drawn) [Compound 37, 2-[3-(1-imidazolyl)phenyl]-6-methyl-4-pentyl-1,4-dihydropyridin-3,5-dicarboxylate 3-ethylester, 5-[(E)-3-(3-pyridyl)-2-propenyl]ester]	2.5
CCOC(=O)C1=C(c2ccc(-n3c(C)nc4cnccc43)cc2)NC(C)=C(C(=O)OCCCc2cccnc2)C1/C=C/c1ccccc1 (stereo not drawn) [Compound 14, 6-methyl-2-[4-(2-methylimidazo[4,5-c]pyridin-1-yl)phenyl]-4-[(E)-2-phenylethenyl]-1,4-dihydropyridin-3,5-dicarboxylate 3-ethylester, 5-[3-(3-pyridyl)propyl]ester]	1.3
CCOC(=O)C1=C(c2ccc(-n3c(C)nc4cnccc43)cc2)NC(C)=C(C(=O)OC/C=C/c2cccnc2)C1/C=C/c1ccoc1 (stereo not drawn) [Compound 27, 4-[(E]-2-(3-furyl)ethenyl]-6-methyl-2-[4-(2-methylimidazo[4,5-c]pyridin-1-yl)phenyl]-1,4-dihydropyridin-3,5-dicarboxylate 3-ethylester, 5-[(E)-3-(3-pyridyl)-2-propenyl]ester]	8.7
CCOC(=O)C1=C(c2ccc(-n3c(C)nc4cnccc43)cc2)NC(C)=C(C(=O)OCCCc2cccnc2)C1CC(C)(C)C (stereo not drawn) [Compound 8, 4-(2,2-dimethylpropyl)-6-methyl-2-[4-(2-methylimidazo[4,5-c]pyridin-1-yl)phenyl]-1,4-dihydropyridin-3,5-dicarboxylate 3-ethylester, 5-[3-(3-pyridyl)propyl]ester]	1.3
CCOC(=O)C1=C(c2ccc(-n3c(C)nc4cnccc43)cc2)NC(C)=C(C(=O)OCCCCCc2cccnc2)C1/C=C/c1ccccc1 (stereo not drawn) [Compound 21, 6-methyl-2-[4-(2-methylimidazo[4,5-c]pyridin-1-yl)phenyl]-4-[(E)-2-phenylethenyl]-1,4-dihydropyridin-3,5-dicarboxylate 3-ethylester, 5-[5-(3-pyridyl)pentyl]ester]	1.1
CCOC(=O)C1=C(c2ccc(-n3c(C)nc4cnccc43)cc2)NC(C)=C(C(=O)OC/C=C/c2cccnc2)C1/C=C/c1ccccc1 (stereo not drawn) [Compound 25, 6-methyl-2-[4-(2-methylimidazo[4,5-c]pyridin-1-yl)phenyl]-4-[(E)-2-phenylethenyl]-1,4-dihydropyridin-3,5-dicarboxylate 3-ethylester, 5-[(E)-3-(3-pyridyl)-2-propenyl]ester]	1.1
